From patent US4435425A, “Fluorinated diaminobutane derivatives” (Merrell Toraude et Compagnie, priority 1982, dated 1984)

Experiments:
[1] = Toxicity (weight loss and deaths) in mice after daily i.p. injection for four consecutive days, observed up to 12 days (Example 10); type: in vivo, mice (male albino CDI)
Protocol: (§1) A group of 10 male albino CDI mice from Charles Riner, France, is given an i.p. injection of the test compound in aqueous solution daily for four consecutive days. Half of the animals are killed by decapitation 24 hours after the last dose of the test compound. The other half of the animals are observed for up to 12 days for toxicity (as indicated by weight loss and deaths). Control animals receive an injection of the vehicle only.
(§2) When tested as described above, 1-fluoro-2,4-diaminobutane (MFDB) and 1,1-difluoro-2,4-diaminobutane (DFDB) gave the results set forth in Table I below: […]

[2] = test system: GABA-T; assay: GABA-T inhibition in mouse brain after daily i.p. injection for four consecutive days (Example 10); type: in vivo, mice (male albino CDI); conditions: 24 hours after last dose
Protocol: as §1
The brains are removed from the dead mice and are divided into two portions by sagittal section. One half is used for the measurement of GABA-T activity while the other half is used for measuring GABA content. The GABA-T activity is measured using known methods as described by M. Jung et al., J. Neurochem., 28, 717 (1977) and 29, 797 (1977). GABA content is measured by perchloric acid or trichloroacetic acid extracts using an amino acid analyzer equiped with a fluorescene detector.
as §2

[3] = 5 mg/kg daily i.p. for 4 days, observed up to 12 days

SMILES	Weight Loss ([1]; 2 mg/kg daily i.p. for 4 days) [%]	Morality (After treatment) ([1]; 2 mg/kg daily i.p. for 4 days, observed up to 12 days)	Weight Loss ([1]; 5 mg/kg daily i.p. for 4 days) [%]	Morality (After treatment) [1, 3]	Weight Loss ([1]; 10 mg/kg daily i.p. for 4 days) [%]	Morality (After treatment) ([1]; 10 mg/kg daily i.p. for 4 days, by day 8)	Weight Loss ([1]; 20 mg/kg daily i.p. for 4 days) [%]	Morality (After treatment) ([1]; 20 mg/kg daily i.p. for 4 days, by day 6)	GABA-T Inhibition ([2]; 2 mg/kg daily i.p. for 4 days) [%]	GABA-T Inhibition ([2]; 5 mg/kg daily i.p. for 4 days) [%]	GABA-T Inhibition ([2]; 10 mg/kg daily i.p. for 4 days) [%]	GABA-T Inhibition ([2]; 20 mg/kg daily i.p. for 4 days) [%]	Morality (After treatment) ([1]; 10 mg/kg daily i.p. for 4 days, observed up to 12 days)	Weight Loss ([1]; 25 mg/kg daily i.p. for 4 days) [%]	Morality (After treatment) ([1]; 25 mg/kg daily i.p. for 4 days, on day 12)	Weight Loss ([1]; 50 mg/kg daily i.p. for 4 days) [%]	Morality (After treatment) ([1]; 50 mg/kg daily i.p. for 4 days, on day 8)	GABA-T Inhibition ([2]; 25 mg/kg daily i.p. for 4 days) [%]	GABA-T Inhibition ([2]; 50 mg/kg daily i.p. for 4 days) [%]
NCCC(N)C(F)F (stereo not drawn) [DFDB, 1,1-Difluoro-2,4-diaminobutane]	0	0/5	0	0/5	-25	2/5	-30	5/5	69.5	71.4	81	96.7							
NCCC(N)CF (stereo not drawn) [MFDB, 1-Fluoro-2,4-diaminobutane]			0	0/5	0					39.7	49.8		0/5	-20	2/5	-35	3/5	74	79
